Entries after “also recorded” stand apart in the source; their conditions may differ.
Experiments:
[1] = system: adult pig articular cartilage explants; test: Proliferation (EdU) and marker expression in adult articular cartilage explants; assay type: cell-based
Protocol: FIGS. 26A-26J. LIF/STAT3/MYC signaling is prominent in fetal articular chondrocytes and can activate a fetal-like phenotype in adult cells. (FIG. 26A) Levels of phospho-STAT3 (pSTAT3) and MYC protein were quantitated in human fetal and adult articular chondrocytes relative to histone H3. (FIG. 26B) Effects of soluble LIF receptor (sLIFR) on MYC and pSTAT3 protein levels on fetal articular chondrocytes after 72 hours. (FIG. 26C) Detection of apoptotic cells using TUNEL staining and flow cytometry analysis of fetal articular cartilage explants cultured in the absence (control) or presence of a MYC (10058-F4) or STAT3 (STATTIC) inhibitor for 24 hours. (FIG. 26D) Quantification of proliferating cells via EdU incorporation in fetal articular cartilage explants and also by flow cytometry analysis for BrdU. Scale bars represent 100 μm. (FIG. 26E) Assessment of metabolic activity of human fetal articular chondrocytes cultured in the presence or absence of MYC or STAT3 inhibitors. (FIG. 26F) Migration capacity of fetal articular chondrocytes was assessed using a Transwell® assay in the absence or presence of MYC and STAT3 inhibitors. (FIG. 26G) Protein levels of MYC and pSTAT3 were measured in adult human articular chondrocytes with and without incubation with LIF. Data are shown normalized to histone H3. (FIG. 26H) Migratory capacity of adult human articular chondrocytes in a Transwell® assay measured in the presence or absence of LIF. (FIG. 26I) Single adult human articular chondrocytes were cultured with or without LIF for 5 weeks to allow detection of colony-forming cells. […]
FIGS. 28A-28I. […] (FIG. 28A) Adult human articular chondrocytes were incubated with or without RCGD 423 and levels of MYC and pSTAT3 were quantified relative to histone H3. (FIG. 28B) Levels of MYC and pSTAT3 protein were measured in pig adult articular chondrocytes to determine the effects of RCGD 423 in a dose- and time-dependent manner; histone H3 was used as a loading control. (FIG. 28C) Migration of adult human articular chondrocytes in a Transwell® assay was assessed in the presence and absence of RCGD 423. […]

[2] = system: MMP13, ADAMTS4 and ADAMTS5; test: Quantitative PCR of catabolic genes in adult pig articular chondrocytes; assay type: cell-based
Protocol: FIGS. 30A-30B. […] (FIG. 30A) Adult pig articular chondrocytes were cultured for 24 hours with the indicated cytokines or RCGD 423 and the levels of pSTAT3 and MYC were measured with respect to histone H3. Representative data for other proteins in the MAPK (p38 and MEK1/2), AKT (phospho-AKT; pAKT) or NF-KB (NF-KB p65) are also shown. (FIG. 30B) Levels of transcription of genes indicative of a catabolic response were determined via quantitative PCR in adult pig articular chondrocytes treated with OSM, IL-6, TNF-α, LIF or RCGD 423. Data are represented at mean±SD.
Cartilage degeneration is generally considered a feed-forward process, in which small losses of chondrocytes result in microenvironmental changes including induction of an inflammatory response and other pro-catabolic events (Hunziker, 2002). In turn, these alterations in the joint milieu promote production of matrix degrading proteins including MMPs (collagenases) and proteins of the ADAMTS family (aggrecanases). LIF has been implicated in promoting this cycle of matrix destruction during the pathogenesis of osteoarthritis (Hui et al., 2000; Lotz et al., 1992), although its role in this process has been controversial. In order to better understand the mechanism of action of LIF, RCGD 423 and known pro-inflammatory cytokines in the promotion of degeneration, we stimulated adult pig articular chondrocytes with these molecules and quantitated the levels of activated downstream proteins that mediate the cellular signaling response (FIG. 30A).
Total RNA was extracted using RNeasy Micro Kit (QIAGEN, Valencia, Calif.) according to the manufacturer's protocol. Quantitative reverse transcription PCR was performed using Bio-Rad T100 Thermal Cycler (Bio-Rad, Hercules, Calif.). Primer sequences are available upon request.

| Compound | proliferation of chondrocytes in adult cartilage explants (EdU) [1] | transcription of matrix degrading enzymes (MMP13, ADAMTS4 and ADAMTS5) [2] | expression of the stem/progenitor cell marker ALDH 1A1 in the surface layer ([1]; adult pig cartilage explants, LIF 50 ng/mL for 3 days) |
| --- | --- | --- | --- |
| Brc1ccc(Nc2nc(-c3ccccc3)cs2)cc1 [RCGD 423, N-(4-Bromophenyl)-4-phenyl-1,3-thiazol-2-amine] | increased | no upregulation; also recorded: does not promote catabolism | – |
| LIF: interleukin 6 (IL-6)-class cytokine | stimulated proliferation; also recorded: significantly increased | neither cytokine resulted in substantial transcriptional upregulation | increased expression |

— patent US11072592B2, “Small molecules that enable cartilage rejuvenation” (The Regents of the University of California, priority 2015, dated 2021)
